Source: publication PMC10865806, “Structural insights into the molecular mechanism of high-level ceftazidime–avibactam resistance conferred by CMY-185” (mBio, 2024)
≈ marks a conversion by molar mass, not a printed value.

How the values were obtained:
CMY-185 = biological target: T1, CMY-185 (Klebsiella pneumoniae, UniProt Q48434, A134E/N366Y/Q140K/V231S); test: Competitive inhibition of cephalothin hydrolysis and avibactam inhibition kinetics; type: biochemical, Escherichia coli; conditions: CMY-185; reporter substrate cephalothin 100 µM, Dixon plot; read-out: Ki app
T1 construct: all CMY-2 variant genes encoding the mature enzyme without a signal peptide were cloned into the protein expression plasmid vector pET-30b; made in house; host or cells: E. coli BL21 (DE3), pET-30b
Source text: (§1) We tested the enzymes, CMY-2, two single mutants V211S (CMY-42) and N346Y, three double mutants A114E_N346Y, Q120K_N346Y, and V211S_N346Y, and the quadruplet mutant CMY-185 to elucidate the impact on the kinetic properties resulting from the four amino acid substitutions present in CMY-185 compared with CMY-2 ([8]). The steady-state kinetic parameters kcat and Km (or Ki app) for nitrocefin, cephalothin, ceftazidime, and cefiderocol and the inhibition parameters Ki app, k2/K, k−2, and koff for avibactam are summarized in Table 1. During the hydrolysis of nitrocefin, we observed the reduction of the initial velocity at concentrations above 50 µM particularly for the CMY-2 variants harboring the N346Y substitution. As this could have represented substrate inhibition, we then determined the kinetics parameters for nitrocefin using the Haldane equation ([16]). […] In addition, during the hydrolysis of cefiderocol by CMY-185, the initial velocities at a concentration range of 3.7–59.4 µM were similar.
(§2) The steady-state kinetics were carried out on a UV-Visible spectrometer (UV-1280, Shimadzu, Japan) in PBS pH 7.2 at 25°C with a constant amount of enzyme and varying concentrations of the substrates. We tested nitrocefin, cephalothin, ceftazidime, and cefiderocol as the substrates and avibactam as the inhibitor. The steady-state kinetics parameters Km and kcat were determined with the Michaelis-Menten equation. For poorly hydrolyzed substrates, the Km value was assumed to be the competitive inhibition constant (Ki app) value according to previous studies ([17], [19]). Inhibition parameter values of Ki app, k2/K, k−2, and koff for avibactam were determined using a method as described previously ([33]). Cephalothin was used as the reporter substrate for competitive inhibition experiments, and its concentration was fixed at 100 µM. The enzyme concentration was 1–10 nM. Inverse steady-state initial velocities were plotted against the concentration of the competitive inhibitor agents, such as ceftazidime, cefiderocol, and avibactam. The data were analyzed by linear regression analysis of the Dixon plot, and Ki app (observed) was determined by dividing the y-intercept value by the slope of the line. It was then corrected to account for the affinity of cephalothin for each enzyme using the Equation (1):
(§3) (1) Ki app=Ki app (observed)/{1+[S]/Km (cephalothin)}
(§4) where [S] represents the concentration of the reporter substrate cephalothin, and Km (cephalothin) is the Km value of cephalothin for each enzyme.
(§5) The koff value was determined using a jump dilution assay. The enzyme and avibactam were mixed and preincubated at 25°C for 5 min. The concentration of avibactam depended on the enzyme and concentrations 10-fold higher from each Ki app (observed) value were adopted, which were determined based on the corrected competitive inhibition constants Ki app. Preincubated enzyme-avibactam mixture was then diluted 2,000-fold in the 100 µM cephalothin solution, and the hydrolysis of cephalothin was measured. Three independent measurements were performed for each enzyme and substrate or inhibitor combination. Curve fittings using linear or non-linear regression were performed with R 4.1.3 (R Core Team, 2022).

CMY-2 = biological target: T2, CMY-2 (Klebsiella pneumoniae, UniProt Q48434); test: as above; type: biochemical, Escherichia coli
T2 construct: all CMY-2 variant genes encoding the mature enzyme without a signal peptide were cloned into the protein expression plasmid vector pET-30b; made in house; host or cells: E. coli BL21 (DE3), pET-30b
Source text: as §1, §2, §3, §4, §5

[1] = biological target: T3, CMY-2 variant A114E_N346Y (Klebsiella pneumoniae, UniProt Q48434, A134E/N366Y); test: as above; type: biochemical, Escherichia coli; conditions: reporter substrate cephalothin 100 µM, Dixon plot, read-out: Ki app
T3 construct: all CMY-2 variant genes encoding the mature enzyme without a signal peptide were cloned into the protein expression plasmid vector pET-30b; made in house; host or cells: E. coli BL21 (DE3), pET-30b
Source text: as §1, §2, §3, §4, §5

CMY-2 variant N346Y = biological target: T4, CMY-2 variant N346Y (Klebsiella pneumoniae, UniProt Q48434, N366Y); test: as above; type: biochemical, Escherichia coli; conditions: N346Y; reporter substrate cephalothin 100 µM, Dixon plot; read-out: Ki app
T4 construct: all CMY-2 variant genes encoding the mature enzyme without a signal peptide were cloned into the protein expression plasmid vector pET-30b; made in house; host or cells: E. coli BL21 (DE3), pET-30b
Source text: as §1, §2, §3, §4, §5

[2] = biological target: T5, CMY-2 variant Q120K_N346Y (Klebsiella pneumoniae, UniProt Q48434, N366Y/Q140K); test: as above; type: biochemical, Escherichia coli; conditions: Q120K_N346Y; reporter substrate cephalothin 100 µM, Dixon plot; read-out: Ki app
T5 construct: all CMY-2 variant genes encoding the mature enzyme without a signal peptide were cloned into the protein expression plasmid vector pET-30b; made in house; host or cells: E. coli BL21 (DE3), pET-30b
Source text: as §1, §2, §3, §4, §5

CMY-178 = conditions: cited from earlier work

CC(C)(O/N=C(\C(=O)N[C@@H]1C(=O)N2C(C(=O)[O-])=C(C[N+]3(CCNC(=O)c4ccc(O)c(O)c4Cl)CCCC3)CS[C@H]12)c1csc(N)n1)C(=O)O [Cefiderocol, cefiderocol]
Ki (CMY-185): 200 nM
fold higher Ki app (CMY-2; cefiderocol compared with ceftazidime): 10 fold
Ki (CMY-2; reporter substrate cephalothin 100 µM, Dixon plot, read-out: Ki app): 8 ± 1.3 µM
Ki [1]: 400 nM
Ki (CMY-2 variant N346Y): 700 nM
Ki [2]: 400 nM
MIC (CMY-178): 1 mg/L (≈ 1.33 µM)
